Laboratory results as given in US9351955B2, “Compounds and pharmaceutical compositions thereof for the treatment of cystic fibrosis” (Galapagos NV, priority 2013, dated 2016).

Tests used:
CFTR G551D mutant = target: T1, CFTR G551D mutant (Homo sapiens, UniProt P13569, G551D); assay: YFP-halide influx assay for the CFTR-G551D mutation (HEK293 cells); type: cell-based; conditions: HEK293 cells expressing CFTR G551D and YFP reporter; forskolin 10.67 μM; read-out: EC50 measured by YFP-halide influx assay for the CFTR-G551D
T1 construct: expressed in transfected cells; host or cells: HEK293 (reverse transfection with plasmids)
From the text: 6.3. YFP-Halide Influx Assay for the CFTR-G551D Mutation
The YFP halide influx assay measures the functionality of the cystic fibrosis Transmembrane Conductance regulator (CFTR) channels. The assay is used to evaluate the capacity of compounds to increase the channel opening of existing mutant CFTR channels in the membrane. It makes use of the observation that the yellow fluorescent protein (YFP) variant YFP H148Q, I152L, F47L has its fluorescence substantially quenched by halide ions like Cl^− and I^−. (Galietta et al., 2001)
For this purpose, HEK293-cells are seeded in 96 well plates. During seeding, the cells are reverse-transfected with plasmid vectors that direct the expression of the CFTR G551D mutant and of the YFP reporter. Cells are incubated at 37° C., 5% CO2 for 24 hours so as to allow for sufficient expression of the CFTR protein.
(§1) The I^−-induced quenching of fluorescence is recorded immediately after injection of I^− for 7 seconds. The capacity of a compound to increase the channel opening is directly correlated with the decrease in fluorescence, and is expressed as (1−(fluorescence after 7 seconds (F)/fluorescence before injection (F0))) and an EC50 can be derived from a (1−F/F0) vs compound concentration plot.

CFTR ΔF508 mutant = target: T2, CFTR ΔF508 mutant (Homo sapiens, UniProt P13569, DEL508-508); assay: YFP-halide influx assay for the CFTR-ΔF508 mutation (384 well, CFBE41o- cells, FDSS/μCell); type: cell-based; conditions: forskolin 10.67 μM, fluorescence after 36 seconds, read-out: EC50 measured by YFP-halide influx assay for the CFTR-ΔF508
T2 construct: expressed in transfected cells; host or cells: CFBE41o- (adenoviral transduction)
From the text: 6.2. YFP-Halide Influx Assay for the CFTR-ΔF508 Mutation
The YFP halide influx assay measures the functionality of the cystic fibrosis Transmembrane Conductance regulator (CFTR) channels in the cystic fibrosis bronchial epithelium cell line CFBE41o-. The assay is used to evaluate the capacity of compounds to increase the open probability of existing CFTR channels in the membrane. It makes use of the observation that the yellow fluorescent protein (YFP) variant YFP H148Q, I152L has its fluorescence substantially quenched by halide ions like Cl— and I— (Galietta et al., 2001; Nagai et al., 2002).
For this purpose, CFBE410-cells are seeded in 384 well plates (3000 CFBE cells/well). One day after seeding, the CFBE cells are transduced with adenoviral vectors that direct the expression of the CFTR ΔF508 mutant and of the YFP reporter. Cells are incubated at 27° C., 5% CO2 for 24 hours so as to allow for the proper folding and migration to the membrane of the CFTR channel or treated with a CFTR modulator during 24 h at 37° C.
as §1, with “I— induced” for “I^−-induced”, “recorded […]” for “recorded”, “I—” for “I^−”, “2 min on an FDSS/μCell (Hamamatsu).” for “7 seconds.”, “36” for “7”

T1 sequence (P13569 whole entry G551D): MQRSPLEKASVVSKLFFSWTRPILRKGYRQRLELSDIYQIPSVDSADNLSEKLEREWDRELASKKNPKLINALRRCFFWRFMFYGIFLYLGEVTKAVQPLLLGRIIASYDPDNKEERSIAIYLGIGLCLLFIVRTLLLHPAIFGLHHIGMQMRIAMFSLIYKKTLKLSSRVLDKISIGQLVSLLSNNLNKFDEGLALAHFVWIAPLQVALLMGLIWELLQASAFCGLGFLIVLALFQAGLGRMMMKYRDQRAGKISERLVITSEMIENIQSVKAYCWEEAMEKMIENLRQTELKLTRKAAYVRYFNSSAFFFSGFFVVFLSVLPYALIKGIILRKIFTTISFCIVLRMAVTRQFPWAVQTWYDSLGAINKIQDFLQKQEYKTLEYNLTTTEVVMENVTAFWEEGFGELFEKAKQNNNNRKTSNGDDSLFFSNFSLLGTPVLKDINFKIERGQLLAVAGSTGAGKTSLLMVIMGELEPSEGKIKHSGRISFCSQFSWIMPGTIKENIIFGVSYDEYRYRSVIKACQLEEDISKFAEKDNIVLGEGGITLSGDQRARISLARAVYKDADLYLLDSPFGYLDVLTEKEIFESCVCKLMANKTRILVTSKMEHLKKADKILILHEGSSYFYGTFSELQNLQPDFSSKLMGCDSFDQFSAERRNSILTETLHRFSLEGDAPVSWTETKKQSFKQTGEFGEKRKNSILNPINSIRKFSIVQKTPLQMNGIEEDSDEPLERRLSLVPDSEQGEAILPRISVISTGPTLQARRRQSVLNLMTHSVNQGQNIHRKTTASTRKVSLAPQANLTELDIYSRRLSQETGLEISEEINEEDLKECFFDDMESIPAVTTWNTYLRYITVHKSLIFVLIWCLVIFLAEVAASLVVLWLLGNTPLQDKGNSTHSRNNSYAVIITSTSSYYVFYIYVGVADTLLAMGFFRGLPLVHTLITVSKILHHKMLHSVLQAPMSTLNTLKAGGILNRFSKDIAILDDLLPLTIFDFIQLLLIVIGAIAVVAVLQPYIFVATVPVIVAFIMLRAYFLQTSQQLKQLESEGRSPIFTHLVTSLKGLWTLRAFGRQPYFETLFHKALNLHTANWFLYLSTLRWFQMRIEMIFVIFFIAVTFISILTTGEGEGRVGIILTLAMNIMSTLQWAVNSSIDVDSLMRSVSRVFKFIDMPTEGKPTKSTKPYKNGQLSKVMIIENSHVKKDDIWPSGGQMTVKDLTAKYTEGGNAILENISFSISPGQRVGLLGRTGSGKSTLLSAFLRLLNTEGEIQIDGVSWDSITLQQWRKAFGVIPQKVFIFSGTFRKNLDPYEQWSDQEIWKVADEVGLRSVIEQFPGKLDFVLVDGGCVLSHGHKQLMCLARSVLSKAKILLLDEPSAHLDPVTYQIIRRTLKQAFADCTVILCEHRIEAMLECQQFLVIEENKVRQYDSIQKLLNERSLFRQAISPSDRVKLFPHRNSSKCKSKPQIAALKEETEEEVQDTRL
T2 sequence (P13569 with tags, fused parts or gaps DEL508-508): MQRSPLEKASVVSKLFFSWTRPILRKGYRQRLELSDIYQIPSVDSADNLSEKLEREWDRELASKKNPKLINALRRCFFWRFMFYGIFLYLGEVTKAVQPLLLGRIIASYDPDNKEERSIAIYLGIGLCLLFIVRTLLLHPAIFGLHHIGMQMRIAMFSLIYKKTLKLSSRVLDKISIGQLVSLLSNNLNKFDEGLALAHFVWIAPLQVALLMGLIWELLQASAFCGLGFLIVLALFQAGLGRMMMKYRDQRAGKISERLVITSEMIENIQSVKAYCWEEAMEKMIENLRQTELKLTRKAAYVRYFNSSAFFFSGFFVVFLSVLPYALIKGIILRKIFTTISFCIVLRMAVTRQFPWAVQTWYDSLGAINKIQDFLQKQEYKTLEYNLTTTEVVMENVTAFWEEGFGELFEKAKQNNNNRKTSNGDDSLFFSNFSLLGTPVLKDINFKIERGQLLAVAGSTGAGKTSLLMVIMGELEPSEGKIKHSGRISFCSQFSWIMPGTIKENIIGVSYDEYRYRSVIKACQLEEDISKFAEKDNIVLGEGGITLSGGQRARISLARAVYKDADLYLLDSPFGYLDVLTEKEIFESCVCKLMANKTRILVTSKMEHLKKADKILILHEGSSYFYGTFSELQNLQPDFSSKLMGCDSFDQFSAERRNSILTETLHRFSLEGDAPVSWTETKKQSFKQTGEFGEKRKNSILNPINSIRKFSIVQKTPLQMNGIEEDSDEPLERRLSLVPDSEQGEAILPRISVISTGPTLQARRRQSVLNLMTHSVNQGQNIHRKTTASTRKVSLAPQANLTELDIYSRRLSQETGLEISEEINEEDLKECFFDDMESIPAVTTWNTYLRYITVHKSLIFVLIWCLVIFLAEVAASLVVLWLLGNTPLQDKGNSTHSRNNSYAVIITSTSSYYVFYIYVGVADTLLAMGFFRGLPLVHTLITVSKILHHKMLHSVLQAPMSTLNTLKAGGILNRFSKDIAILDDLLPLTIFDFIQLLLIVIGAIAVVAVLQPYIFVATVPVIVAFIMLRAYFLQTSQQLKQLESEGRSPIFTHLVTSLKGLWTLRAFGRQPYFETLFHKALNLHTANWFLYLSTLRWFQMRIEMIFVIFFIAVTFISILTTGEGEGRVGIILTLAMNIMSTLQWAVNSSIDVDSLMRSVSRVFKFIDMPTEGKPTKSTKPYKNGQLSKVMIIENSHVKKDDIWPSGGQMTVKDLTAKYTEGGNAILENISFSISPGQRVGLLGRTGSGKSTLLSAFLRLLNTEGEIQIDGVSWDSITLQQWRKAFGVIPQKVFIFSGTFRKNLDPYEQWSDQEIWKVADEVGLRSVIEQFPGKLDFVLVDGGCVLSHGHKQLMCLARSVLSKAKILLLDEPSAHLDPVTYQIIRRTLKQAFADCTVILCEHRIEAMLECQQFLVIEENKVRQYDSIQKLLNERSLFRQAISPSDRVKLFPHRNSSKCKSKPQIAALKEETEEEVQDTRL

EC50 (CFTR G551D mutant) [nM]	EC50 (CFTR ΔF508 mutant) [nM]	SMILES
3330	23.6	CC(O)C1(C(=O)Nc2sc3c(c2C(N)=O)CC(C)(C)OC3(C)C)CC1 (stereo not drawn) [Compound 79, 2-[[1-[1-hydroxyethyl]cyclopropanecarbonyl]amino]-5,5,7,7-tetramethyl-4H-thieno[2,3-c]pyran-3-carboxamide]
6660	3.23	CC1(C)Cc2c(sc(NC(=O)C(C)(O)C(C)(C)C)c2C(N)=O)C(C)(C)O1 (stereo not drawn) [Compound 81, 2-[(2-hydroxy-2,3,3-trimethyl-butanoyl)amino]-5,5,7,7-tetramethyl-4H-thieno[2,3-c]pyran-3-carboxamide]
3330	25.4	CC1(C)Cc2c(sc(NC(=O)C(CO)CC3CC3)c2C(N)=O)C(C)(C)O1 (stereo not drawn) [Compound 84, 2-[[2-(cyclopropylmethyl)-3-hydroxy-propanoyl]amino]-5,5,7,7-tetramethyl-4H-thieno[2,3-c]pyran-3-carboxamide]
3330	93.5	CC1(C)Cc2c(sc(NC(=O)C(CO)C(C)(C)C)c2C(N)=O)C(C)(C)O1 (stereo not drawn) [Compound 85, 2-[[2-(hydroxymethyl)-3,3-dimethyl-butanoyl]amino]-5,5,7,7-tetramethyl-4H-thieno[2,3-c]pyran-3-carboxamide]
1170	145	CC1(C)Cc2c(sc(NC(=O)c3n[nH]cc3CO)c2C(N)=O)C(C)(C)O1 [Compound 88, N-(3-carbamoyl-5,5,7,7-tetramethyl-4H-thieno[2,3-c]pyran-2-yl)-4-(hydroxymethyl)-1H-pyrazole-3-carboxamide]
3200	120	CC1(C)Cc2c(sc(NC(=O)C(CO)C(C)(C)C)c2C(N)=O)C(C)(C)O1 (stereo not drawn) [Compound 90, 2-[[2-(hydroxymethyl)-3,3-dimethyl-butanoyl]amino]-5,5,7,7-tetramethyl-4H-thieno[2,3-c]pyran-3-carboxamide]
3330	479	CC1(C)Cc2c(sc(NC(=O)c3ccn(COP(=O)(O)O)n3)c2C(N)=O)C(C)(C)O1 [Compound 93, [3-[(3-carbamoyl-5,5,7,7-tetramethyl-4H-thieno[2,3-c]pyran-2-yl)carbamoyl]pyrazol-1-yl]methyl dihydrogen phosphate]
1340	28.3	CC1(C)Cc2c(sc(NC(=O)[C@]3(CO)CC3(C)C)c2C(N)=O)C(C)(C)O1 [Compound 99, 2-[[(1R)-1-(hydroxymethyl)-2,2-dimethyl-cyclopropanecarbonyl]amino]-5,5,7,7-tetramethyl-4H-thieno[2,3-c]pyran-3-carboxamide]
2860	190	COCCOc1c[nH]nc1C(=O)Nc1sc2c(c1C(N)=O)CC(C)(C)OC2(C)C [Compound 100, N-(3-carbamoyl-5,5,7,7-tetramethyl-4H-thieno[2,3-c]pyran-2-yl)-4-(2-methoxyethoxy)-1H-pyrazole-3-carboxamide]
2790	77.5	CC1(C)Cc2c(sc(NC(=O)c3ccccc3OC(F)F)c2C(N)=O)C(C)(C)O1 [Compound 113, 2-[[2-(difluoromethoxy)benzoyl]amino]-5,5,7,7-tetramethyl-4H-thieno[2,3-c]pyran-3-carboxamide]
1710	40.9	CC1(C)Cc2c(sc(NC(=O)c3ccn(C(F)F)n3)c2C(N)=O)C(C)(C)O1 [Compound 114, N-(3-carbamoyl-5,5,7,7-tetramethyl-4H-thieno[2,3-c]pyran-2-yl)-1-(difluoromethyl)pyrazole-3-carboxamide]
586	62.1	CC1(C)Cc2c(sc(NC(=O)c3ccnn3C(F)F)c2C(N)=O)C(C)(C)O1 [Compound 115, N-(3-carbamoyl-5,5,7,7-tetramethyl-4H-thieno[2,3-c]pyran-2-yl)-2-(difluoromethyl)pyrazole-3-carboxamide]
1520	88	CC1(C)Cc2c(sc(NC(=O)c3nn(C(F)F)cc3Cl)c2C(N)=O)C(C)(C)O1 [Compound 116, N-(3-carbamoyl-5,5,7,7-tetramethyl-4H-thieno[2,3-c]pyran-2-yl)-4-chloro-1-(difluoromethyl)pyrazole-3-carboxamide]
6660	239	Cn1cc(C(=O)Nc2sc3c(c2C(N)=O)CC(C)(C)OC3(C)C)c(C(F)F)n1 [Compound 117, N-(3-carbamoyl-5,5,7,7-tetramethyl-4H-thieno[2,3-c]pyran-2-yl)-3-(difluoromethyl)-1-methyl-pyrazole-4-carboxamide]
2170	159	Cn1ccc(C(=O)Nc2sc3c(c2C(N)=O)CC(C)(C)OC3(C)C)n1 [Compound 119, N-(3-carbamoyl-5,5,7,7-tetramethyl-4H-thieno[2,3-c]pyran-2-yl)-1-methyl-pyrazole-3-carboxamide]
2410	121	Cn1nccc1C(=O)Nc1sc2c(c1C(N)=O)CC(C)(C)OC2(C)C [Compound 120, N-(3-carbamoyl-5,5,7,7-tetramethyl-4H-thieno[2,3-c]pyran-2-yl)-2-methyl-pyrazole-3-carboxamide]
2380	41.7	CC1(C)Cc2c(sc(NC(=O)c3cccc(C(F)F)c3)c2C(N)=O)C(C)(C)O1 [Compound 122, 2-[[3-(difluoromethyl)benzoyl]amino]-5,5,7,7-tetramethyl-4H-thieno[2,3-c]pyran-3-carboxamide]
825	87.9	CC1(C)Cc2c(sc(NC(=O)c3ccccc3C(F)F)c2C(N)=O)C(C)(C)O1 [Compound 123, 2-[[2-(difluoromethyl)benzoyl]amino]-5,5,7,7-tetramethyl-4H-thieno[2,3-c]pyran-3-carboxamide]
685	40.6	CC1(C)Cc2c(sc(NC(=O)C3(C)CC(F)(F)C3)c2C(N)=O)C(C)(C)O1 [Compound 124, 2-[(3,3-difluoro-1-methyl-cyclobutanecarbonyl)amino]-5,5,7,7-tetramethyl-4H-thieno[2,3-c]pyran-3-carboxamide]
3330	194	Cc1nc(C(=O)Nc2sc3c(c2C(N)=O)CC(C)(C)OC3(C)C)co1 [Compound 125, N-(3-carbamoyl-5,5,7,7-tetramethyl-4H-thieno[2,3-c]pyran-2-yl)-2-methyl-oxazole-4-carboxamide]
3330	555	CC1(C)Cc2c(sc(NC(=O)c3ccn(CC(F)F)n3)c2C(N)=O)C(C)(C)O1 [Compound 126, N-(3-carbamoyl-5,5,7,7-tetramethyl-4H-thieno[2,3-c]pyran-2-yl)-1-(2,2-difluoroethyl)pyrazole-3-carboxamide]
878	34.2	CC1(C)Cc2c(sc(NC(=O)c3cscn3)c2C(N)=O)C(C)(C)O1 [Compound 128, N-(3-carbamoyl-5,5,7,7-tetramethyl-4H-thieno[2,3-c]pyran-2-yl)thiazole-4-carboxamide]
2290	77.3	CC1(C)Cc2c(sc(NC(=O)c3cocn3)c2C(N)=O)C(C)(C)O1 [Compound 129, N-(3-carbamoyl-5,5,7,7-tetramethyl-4H-thieno[2,3-c]pyran-2-yl)oxazole-4-carboxamide]
3330	552	CC1(C)Cc2c(sc(NC(=O)c3ccno3)c2C(N)=O)C(C)(C)O1 [Compound 133, N-(3-carbamoyl-5,5,7,7-tetramethyl-4H-thieno[2,3-c]pyran-2-yl)isoxazole-5-carboxamide]
